Source: patent US8012944B2, “Method for treating cancer using IAP antisense oligomer and chemotherapeutic agent” (Pharmascience Inc., priority 2003, dated 2011)
d = 2'-deoxy (DNA); m = 2'-O-methyl

Legend:
Format in all cases: cell-based, human
XIAP RNA = XIAP RNA knock-down in T24 cells (TaqMan quantitative PCR)
Source text: We used TaqMan quantitative PCR (described below) to assay for changes in mRNA levels after oligonucleotide treatment. We employed ELISA for determining XIAP protein levels and western blotting for determining HIAP1 protein levels. Transfection conditions were optimized with Lipofectamine plus or Lipofectamine 2000 (Life Technologies, Canada) on T24 bladder carcinoma cells or H460 non-small cell lung carcinoma cells, or lipofectin on SF-295 glioblastoma cells, using a fluorescein-tagged sense oligonucleotide (5′-mGmAGAAGATGACTGGTAAmCmA-3′; SEQ ID NO: 261) from XIAP spanning the start codon as a control. The results were visualized and gauged by epi-fluorescence microscopy. In the case of T24 cells, transfections were further optimized based on the ability of a published oligonucleotide to downregulate survivin expression (Li et al., Nat. Cell Biol. 1:461-466, 1999) (5′-U/TGTGCTATTCTGTGAAU/TU/T-3′ SEQ ID NO: 262). We optimized the transfection conditions based on the TaqMan results of survivin RNA knock-down detected with PCR primers and fluorescent probe, described in detail below. […] We then applied these conditions to screen for XIAP protein knock-down using the oligo library against T24 cells.
RNA was extracted from cells lysed in RLT buffer (QIAGEN, Valencia, Calif.), and purified using QIAGEN RNeasy columns/kits. Real-time quantitative PCR was performed on a Perkin-Elmer ABI 7700 Prism PCR machine. RNA was reverse transcribed and amplified according to the TaqMan Universal PCR Master Mix protocol of PE Biosystems, using primers and probes designed to specifically recognize XIAP, HIAP1, survivin, or GAPDH. For human survivin, the forward primer was 5′-[…]-3′ (SEQ ID NO: 263), the reverse primer was 5′-GAAAGGAAAGCGCAACCG-3′ (SEQ ID NO: 264), and the probe was 5′-(FAM)[…](TAMRA)-3′ (SEQ ID NO: 265). For human HIAP1, the forward primer was 5′-[…]-3′ (SEQ ID NO: 266), the reverse primer was 5′-[…]-3′ (SEQ ID NO: 267), and the probe was 5′-(FAM)[…](TAMRA)-3′ (SEQ ID NO: 268). For human XIAP, the forward primer was 5′-[…]-3′ (SEQ ID NO: 269), the reverse primer was 5′-[…]-3′ (SEQ ID NO: 270), and the probe was 5′-(FAM)[…](TAMRA)-3′ (SEQ ID NO: 271). For human GAPDH, the forward primer was 5′-GAAGGTGAAGGTCGGAGTC-3′ (SEQ ID NO: 272), the reverse primer was 5′-GAAGATGGTGATGGGATTC-3′ (SEQ ID NO: 273), and the probe was 5′-(JOE)[…](TAMRA)-3′ (SEQ ID NO: 274). FAM is 6-carboxyfluoroscein, JOE is 6-carboxy-4,5-dichloro-2,7-dimethoxyfluoroscein, and TAMRA is 6-carboxy-N,N,N′,N′-tetramethylrhodamine. FAM and JOE are 5′ reporter dyes, while TAMRA is a 3′ quencher dye.
Relative quantification of gene expression was performed as described in the PE Biosystems manual using GAPDH as an internal standard. The comparative Ct (cycle threshold) method was used for relative quantitation of IAP mRNA levels compared to GAPDH mRNA levels. Briefly, real-time fluorescence measurements were taken at each PCR cycle and the threshold cycle (Ct) value for each sample was calculated by determining the point at which fluorescence exceeded a threshold limit of 30 times the baseline standard deviation. The average baseline value and the baseline SD are calculated starting from the third cycle baseline value and stopping at the baseline value three cycles before the signal starts to exponentially rise. The PCR primers and/or probes for the specific IAPs were designed to span at least one exon-intron boundary separated by 1 kb or more of genomic DNA, to reduce the possibility of amplifying and detecting genomic DNA contamination. The specificity of the signal, and possible contamination from DNA, were verified by treating some RNA samples with either DNase or RNase, prior to performing the reverse transcription and PCR reaction steps.
The XIAP synthetic library of 96 antisense oligonucleotides was first screened for decreases in XIAP protein levels. […]

XIAP protein = XIAP protein knock-down in T24 cells (XIAP ELISA, relative to total protein); settings: for XIAP protein levels relative to total protein, compared to mock transfection (in words): first screen of the library
Procedure, shortened: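 T24 bladder carcinoma cells transfected with antisense oligonucleotides using Lipofectamine plus in serum-free, antibiotic-free McCoy's medium for three hours, then serum added. XIAP protein measured by colorimetric sandwich ELISA on day 4, normalized to total cellular protein and compared with mock transfection.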

[1] = tested on: T24 bladder carcinoma cells; assay: T24 cell viability and chemosensitization (WST-1 tetrazolium dye assay); settings: adriamycin 0.5 μg/ml for 20 hours after transfection, vs oligonucleotide alone
Experimental: T24 cells were transfected with XIAP antisense oligonucleotides, scrambled oligonucleotides, no oligonucleotides (mock transfected), or were left untreated. The cells were tested for viability 20 hours after transfection (with the exception of the untreated control) using the WST-1 tetrazolium dye assay in which WST-1 tetrazolium dye is reduced to a colored formazan product in metabolically active cells (FIG. 5A).
To examine the effects of the nucleobase oligomers on the chemosensitization of the T24 cells to cisplatin or adriamycin, oligonucleotides were tested for their ability to further kill T24 cells in the presence of a fixed dose of adriamycin (0.5 μg/ml). Cells were first transfected with a oligonucleotide, then adriamycin was added for another 20 hours. Viability was measured by WST-1 at the end of the 20-hour drug treatment (FIG. 5B). Results are shown in FIG. 5C as percentage viability compared to nucleobase oligomer treatment alone.

XIAP mRNA = XIAP mRNA knock-down in H460 cells (real-time RT-PCR / TaqMan)
Procedure, shortened: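 NCI-H460 cells transfected with phosphorothioate antisense oligonucleotides via Lipofectamine 2000; RNA isolated after 6 h treatment. XIAP mRNA quantified by one-step TaqMan real-time RT-PCR, comparative Ct (threshold 30× baseline SD), normalized to GAPDH and expressed relative to untreated control cells.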

Sequence	XIAP down-regulation T24 RNA (XIAP RNA)	XIAP down-regulation T24 protein (XIAP protein)	XIAP protein levels relative to total protein, compared to mock transfection (in words) (XIAP protein)	further drop in survival with adriamycin [1]	XIAP down-regulation H460 RNA (XIAP mRNA)
ATCTTCTCTTGAAAATAGG (sugars from the 5' end m2 d15 m2, linkages s1 o16 s1 (s phosphorothioate, o phosphodiester), T or U not given here) [Code F3]	44%	53%	some decrease	40%	
GATTCACTTCGAATATTAA (sugars from the 5' end m2 d15 m2, linkages s1 o16 s1 (s phosphorothioate, o phosphodiester), methylation of C not given here) [Code D7]	56%	88%	some decrease	40%	46%
